Experimental data published in article PMC7399337, “Biological Properties and Absolute Configuration of Flavanones From Calceolaria thyrsiflora Graham” (Frontiers in Pharmacology, 2020).
≈ marks a conversion by molar mass, not a printed value.

Assays:
A. tumefaciens = experiment: Antibacterial MIC, broth microdilution, phytopathogens; format: cell-based; conditions: Agrobacterium tumefaciens; GN A. tumefaciens; 24 h; tested 12.5 to 1,600 µg/ml; read-out: Minimum inhibitory concentration (MIC)
Description: (§1) The minimum inhibitory concentrations (MIC) were determined using the broth microdilution method ([Díaz et al., 2018]). Two-fold serial dilutions were added to the wells of sterile 96-well plates containing inoculated BBL™ Mueller Hinton II Broth medium suspensions of bacterial cells (1.0 x10^5 UFC/ml) of Agrobacterium tumefaciens and Bacillus subtilis. The final concentrations ranged from 12.5 to 1,600 µg/ml. Ethanol (1%) was used as the negative control and chloramphenicol (CALBIOCHEM; U.S. and Canada) was used as the positive control against both bacteria. MICs were determined according to the OD600 obtained in a Thermo Scientific Multiskan GO 96-well plate photometer. […] Assays were done in triplicate.

B. subtilis = experiment: as above; format: cell-based; conditions: Bacillus subtilis; GP B. subtilis; 24 h; tested 12.5 to 1,600 µg/ml; read-out: Minimum inhibitory concentration (MIC)
Description: as §1

`O=C(N[C@H](CO)[C@H](O)c1ccc([N+](=O)[O-])cc1)C(Cl)Cl` [Chloramphenicol] was tested, and the MIC (A. tumefaciens) was 12.5 µg/mL (≈ 38.7 µM) and the MIC (B. subtilis) was 12.5 µg/mL (≈ 38.7 µM).
